Reference: ChEMBL document CHEMBL1201862, “PubChem BioAssay data set” (2004)
Active and inactive are the calls of the source.

Columns and labels:
[1] = Luminescence Cell-Based Dose Confirmation HTS to Identify Activators of 5'UTR Stem-Loop Driven Alpha-Synuclein mRNA Translation in H4 Neuroglioblastoma Cells. [Related pubchem assays: 1829 (Project Summary), 1814 (Primary HTS)]; format: functional
[2] = Luminescence Cell-Based Dose Response HTS to Identify Activators of Luciferase Translation or Activity in H4 […] Cells. [Related pubchem assays: 1829 (Project Summary), 1814 (Primary HTS)]; format: functional
[3] = test system: H4; assay: Luminescence Cell-Based Dose Response HTS to Identify Activators of 5'UTR Stem-Loop Driven Prion Protein mRNA Translation in H4 Neuroglioblastoma Cells. [Related pubchem assays: 1829 (Project Summary), 1814 (Primary HTS)]; format: functional; details: Homo sapiens
[4] = biological target: T1, Caspase-3 (Homo sapiens, UniProt P42574); format: functional;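 further: Dose-response selectivity test against caspase-3 for candidate inhibitors of sentrin-specific proteases (SENPs)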
T1 sequence (P42574 whole entry): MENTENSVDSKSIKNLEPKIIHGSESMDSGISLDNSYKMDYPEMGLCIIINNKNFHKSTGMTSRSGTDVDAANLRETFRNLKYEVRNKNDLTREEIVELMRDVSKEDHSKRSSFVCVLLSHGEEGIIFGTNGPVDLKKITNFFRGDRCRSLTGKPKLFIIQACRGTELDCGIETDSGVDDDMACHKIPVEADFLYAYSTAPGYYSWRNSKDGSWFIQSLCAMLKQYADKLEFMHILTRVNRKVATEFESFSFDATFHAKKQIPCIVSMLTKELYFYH

[5] = biological target: T2, Sentrin-specific protease 7 (Homo sapiens, UniProt Q9BQF6); format: functional;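 further: Luminescence-based dose-response confirmation of ultra-high-throughput screening hits, measuring inhibition of SENP7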
T2 sequence (Q9BQF6 whole entry): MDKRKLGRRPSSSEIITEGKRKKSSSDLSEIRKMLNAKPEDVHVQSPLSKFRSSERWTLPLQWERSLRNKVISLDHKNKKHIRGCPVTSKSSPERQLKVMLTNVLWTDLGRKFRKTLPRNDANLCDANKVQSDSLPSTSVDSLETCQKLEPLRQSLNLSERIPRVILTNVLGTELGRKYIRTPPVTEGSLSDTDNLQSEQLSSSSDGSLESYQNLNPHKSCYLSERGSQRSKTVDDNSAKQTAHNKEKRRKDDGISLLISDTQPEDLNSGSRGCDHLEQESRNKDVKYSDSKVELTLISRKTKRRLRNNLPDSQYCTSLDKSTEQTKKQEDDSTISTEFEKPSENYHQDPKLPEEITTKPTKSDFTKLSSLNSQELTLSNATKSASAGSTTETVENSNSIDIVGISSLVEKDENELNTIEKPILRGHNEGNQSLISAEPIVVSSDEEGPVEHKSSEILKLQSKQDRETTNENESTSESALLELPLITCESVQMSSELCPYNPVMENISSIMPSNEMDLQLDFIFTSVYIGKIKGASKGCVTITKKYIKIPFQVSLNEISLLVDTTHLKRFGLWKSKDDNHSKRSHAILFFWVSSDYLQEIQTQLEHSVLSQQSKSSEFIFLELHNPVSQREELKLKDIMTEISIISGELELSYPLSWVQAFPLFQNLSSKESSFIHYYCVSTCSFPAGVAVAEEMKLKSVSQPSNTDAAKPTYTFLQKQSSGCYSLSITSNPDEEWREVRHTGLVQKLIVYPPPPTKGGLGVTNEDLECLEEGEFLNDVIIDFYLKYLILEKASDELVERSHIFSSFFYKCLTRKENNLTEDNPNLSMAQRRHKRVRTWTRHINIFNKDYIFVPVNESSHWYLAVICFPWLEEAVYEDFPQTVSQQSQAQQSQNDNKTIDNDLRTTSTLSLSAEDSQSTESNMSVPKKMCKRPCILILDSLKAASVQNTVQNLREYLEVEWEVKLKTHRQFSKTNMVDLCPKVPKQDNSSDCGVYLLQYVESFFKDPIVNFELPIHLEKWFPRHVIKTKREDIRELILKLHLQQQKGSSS

[6] = biological target: T3, Sentrin-specific protease 6 (Homo sapiens, UniProt Q9GZR1); format: functional;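 further: Luminescence-based dose-response confirmatory assay of SENP6 inhibition, following up an ultra-high-throughput screen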
T3 sequence (Q9GZR1 whole entry): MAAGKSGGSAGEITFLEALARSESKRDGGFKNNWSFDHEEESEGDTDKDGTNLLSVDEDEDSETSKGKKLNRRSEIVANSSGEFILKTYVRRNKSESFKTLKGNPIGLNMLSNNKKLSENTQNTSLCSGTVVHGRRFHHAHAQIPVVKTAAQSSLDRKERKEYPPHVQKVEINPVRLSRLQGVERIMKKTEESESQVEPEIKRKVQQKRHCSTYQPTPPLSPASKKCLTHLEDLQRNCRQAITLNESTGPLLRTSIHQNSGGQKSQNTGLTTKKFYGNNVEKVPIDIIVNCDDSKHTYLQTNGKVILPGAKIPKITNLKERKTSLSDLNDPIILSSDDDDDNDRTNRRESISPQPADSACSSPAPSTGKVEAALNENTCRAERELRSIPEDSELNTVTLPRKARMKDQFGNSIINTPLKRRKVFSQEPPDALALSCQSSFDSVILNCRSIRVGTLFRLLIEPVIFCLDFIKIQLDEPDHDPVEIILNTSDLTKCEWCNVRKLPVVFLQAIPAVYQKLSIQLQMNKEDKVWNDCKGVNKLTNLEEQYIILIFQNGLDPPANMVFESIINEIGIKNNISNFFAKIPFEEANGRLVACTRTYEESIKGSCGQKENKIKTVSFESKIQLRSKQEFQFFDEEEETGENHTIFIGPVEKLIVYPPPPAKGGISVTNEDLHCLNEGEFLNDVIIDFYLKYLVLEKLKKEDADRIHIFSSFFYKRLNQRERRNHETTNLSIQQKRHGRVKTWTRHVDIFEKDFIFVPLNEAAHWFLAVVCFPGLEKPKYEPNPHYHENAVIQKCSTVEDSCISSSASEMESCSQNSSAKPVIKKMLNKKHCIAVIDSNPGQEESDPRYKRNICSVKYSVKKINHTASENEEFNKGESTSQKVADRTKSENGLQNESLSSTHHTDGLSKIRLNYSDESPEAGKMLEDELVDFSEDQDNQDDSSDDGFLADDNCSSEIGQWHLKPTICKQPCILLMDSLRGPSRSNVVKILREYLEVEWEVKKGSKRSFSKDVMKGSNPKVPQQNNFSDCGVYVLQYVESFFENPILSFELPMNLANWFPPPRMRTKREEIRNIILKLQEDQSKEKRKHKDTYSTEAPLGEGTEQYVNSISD

[7] = biological target: T4, Sentrin-specific protease 8 (Homo sapiens, UniProt Q96LD8); format: functional;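 further: luminescence read-out of SENP8 inhibition, dose-response confirmation following an ultra-high-throughput screen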
T4 sequence (Q96LD8 whole entry): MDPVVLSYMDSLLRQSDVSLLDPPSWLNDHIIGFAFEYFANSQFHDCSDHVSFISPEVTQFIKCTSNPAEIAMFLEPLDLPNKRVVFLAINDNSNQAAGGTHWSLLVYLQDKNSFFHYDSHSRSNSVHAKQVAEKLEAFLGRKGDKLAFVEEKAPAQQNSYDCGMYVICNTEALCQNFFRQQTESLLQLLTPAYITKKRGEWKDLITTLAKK

[8] = NIH-3T3 fibroblast cytotoxicity, dose response, cytotoxicity control, cell-based, fluorescence, Alamar Blue, secondary assay (AID 2327); format: functional;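 further: NIH-3T3 mouse fibroblasts cultured with fluconazole at 8 µg/mL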
[9] = biological target: T5, Heat shock factor protein 1 (Mus musculus, UniProt P38532); assay: decrease of HSF1-responsive luciferase luminescence – cell-based, NIH3T3, dose retest, confirmation (AID 2382); format: functional;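 further: NIH3T3 fibroblasts with HSF1-driven luciferase reporter stressed by proteasome inhibitor MG132; luminescence from HSF1-driven luciferase expression after 8 hours of MG132 stress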
T5 sequence (P38532 whole entry): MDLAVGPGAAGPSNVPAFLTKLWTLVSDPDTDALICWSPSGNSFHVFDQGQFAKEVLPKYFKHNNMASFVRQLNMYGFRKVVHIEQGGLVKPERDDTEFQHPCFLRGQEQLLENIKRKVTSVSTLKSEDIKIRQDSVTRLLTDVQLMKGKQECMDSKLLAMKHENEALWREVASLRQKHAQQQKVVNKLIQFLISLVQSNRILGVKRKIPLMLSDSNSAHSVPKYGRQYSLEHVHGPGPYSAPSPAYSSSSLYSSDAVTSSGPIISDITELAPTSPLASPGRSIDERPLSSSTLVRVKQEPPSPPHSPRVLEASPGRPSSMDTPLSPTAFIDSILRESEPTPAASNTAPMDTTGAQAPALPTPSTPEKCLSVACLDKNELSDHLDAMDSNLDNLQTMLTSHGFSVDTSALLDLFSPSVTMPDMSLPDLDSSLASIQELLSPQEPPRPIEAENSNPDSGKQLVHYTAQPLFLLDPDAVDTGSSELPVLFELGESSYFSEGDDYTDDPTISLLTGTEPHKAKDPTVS

[10] = fluconazole-exposed Candida albicans growth modulators – fluorescence, retest, confirmation (AID 2467); format: functional, cell-based
[11] = Trypanosoma cruzi growth suppression in host cells – NIH3T3 host cells, beta-gal luminescence, confirmation (AID 2044); format: functional, cell-based;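 further: intracellular parasites grown in NIH/3T3 mouse fibroblasts as host cells; luminescent beta-galactosidase reporter signal from transgenic T. cruzi replicating inside host cells; inhibitors lower the luminescence signal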
[12] = biological target: T6, Serine/threonine-protein phosphatase (Candida dubliniensis (strain CD36 / CBS 7987 / NCPF 3949 / NRRLY-17841) (Yeast), UniProt B9W6M3); assay: blockers of CaCl2-induced CDRE-lacZ signaling – S. cerevisiae, luminescence, secondary, dose response (AID 2388); format: functional, cell-based;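 further: yeast reporter cells carrying a calcineurin-responsive lacZ construct stimulated with calcium chloride; luminescent beta-galactosidase reporter signal in whole cells rather than isolated phosphatase activity; potency for inhibition where a drop in reporter signal means calcineurin blockade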
T6 sequence (B9W6M3 whole entry): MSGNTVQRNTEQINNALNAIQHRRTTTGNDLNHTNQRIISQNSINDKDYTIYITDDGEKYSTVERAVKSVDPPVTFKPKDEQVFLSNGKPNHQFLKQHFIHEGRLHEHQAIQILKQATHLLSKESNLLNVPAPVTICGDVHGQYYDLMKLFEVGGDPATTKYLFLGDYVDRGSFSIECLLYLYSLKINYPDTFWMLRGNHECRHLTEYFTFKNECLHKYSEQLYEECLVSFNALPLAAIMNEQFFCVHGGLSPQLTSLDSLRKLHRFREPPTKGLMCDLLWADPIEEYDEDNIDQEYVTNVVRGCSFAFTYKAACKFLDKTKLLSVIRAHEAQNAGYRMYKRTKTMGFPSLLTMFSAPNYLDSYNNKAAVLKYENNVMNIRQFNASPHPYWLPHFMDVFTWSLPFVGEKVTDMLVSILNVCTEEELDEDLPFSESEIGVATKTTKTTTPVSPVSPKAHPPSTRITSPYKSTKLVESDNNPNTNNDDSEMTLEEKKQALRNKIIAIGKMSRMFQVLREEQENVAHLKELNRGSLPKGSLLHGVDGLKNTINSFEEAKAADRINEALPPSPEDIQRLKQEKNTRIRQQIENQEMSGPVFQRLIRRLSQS

[13] = NIH3T3 cell viability loss – ATP luminescence, mouse fibroblasts, counter-screen, dose response (AID 2010); format: functional, cell-based;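 further: cells exposed to compound for about 90 hours before reading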
[14] = biological target: Nonstructural protein 1 (Influenza A virus, UniProt Q194T2); format: functional, Influenza A virus (A/California/07/2009(H1N1))
[15] = biological target: T7, Microphthalmia-associated transcription factor (Homo sapiens, UniProt O75030); assay: reducers of TRPM1 reporter luminescence, concentration series – cell-based, SK-MEL-5, cherry-picked, set 3, MITF inhibitor project, dose response (AID 493073); format: functional;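 further: SK-MEL-5 melanoma cells with luciferase driven by the MITF target TRPM1 promoter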
T7 sequence (O75030 whole entry): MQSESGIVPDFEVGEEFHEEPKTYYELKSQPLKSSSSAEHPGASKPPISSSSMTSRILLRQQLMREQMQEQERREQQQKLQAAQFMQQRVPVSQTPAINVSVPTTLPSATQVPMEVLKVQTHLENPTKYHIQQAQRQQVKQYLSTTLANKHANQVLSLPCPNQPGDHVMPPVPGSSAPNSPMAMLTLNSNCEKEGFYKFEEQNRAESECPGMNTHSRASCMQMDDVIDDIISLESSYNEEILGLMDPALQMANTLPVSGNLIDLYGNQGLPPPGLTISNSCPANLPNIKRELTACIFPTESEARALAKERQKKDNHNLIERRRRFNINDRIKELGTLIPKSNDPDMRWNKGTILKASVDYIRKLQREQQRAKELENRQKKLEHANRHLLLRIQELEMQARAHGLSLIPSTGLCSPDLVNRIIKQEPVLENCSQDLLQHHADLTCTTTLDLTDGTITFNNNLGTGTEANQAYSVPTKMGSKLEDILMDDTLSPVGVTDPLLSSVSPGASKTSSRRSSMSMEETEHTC

[16] = test system: A-375; assay: MITF: Counter assay: A375 proliferation Measured in Cell-Based System Using Plate Reader - 2084-03_Inhibitor_Dose_DryPowder_Activity. [Related pubchem assays (depositor defined):AID488944]; format: functional; details: Homo sapiens
[17] = test system: INS1; assay: INS-1E survival protection against cytokine death – cell-based, luminescence, retest, dose response (AID 449756); format: functional; details: Rattus norvegicus;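 further: cell death triggered by IL-1 beta plus TNF-alpha plus IFN-gamma mixture; protective hits raise ATP signal compared with cytokine alone wells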
[18] = biological target: ATP-dependent molecular chaperone HSP82 (Candida albicans (strain WO-1) (Yeast), UniProt C4YTQ8); assay: steroid-induced GRE reporter decrease in yeast – S. cerevisiae, luminescence, Hsp90 inhibitor project, dose response (AID 2400); format: functional, cell-based;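 further: beta-galactosidase luminescence from glucocorticoid response element reporter as proxy for Hsp90 function; inhibitor potency where signal loss means Hsp90 inhibition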
[19] = reduction of Shn3 3'UTR-driven luciferase in osteoblasts – cell-based, Clone20 osteoblasts, firefly luciferase, cherry-picked, dose response (AID 624132); format: functional;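 further: firefly luciferase luminescence from reporter carrying the Shn3 3'UTR in osteoblasts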
[20] = loss of viability in HepG2 cells – cell-based, CellTiter-Glo, cherry-picked, cytotoxicity control for Shn3 inhibitor project, dose response (AID 624134); format: functional
[21] = non-specific 3'UTR reporter inhibition in Clone20-Shn3RL – cell-based, Renilla luciferase, cherry-picked, counter-screen for Shn3 inhibitor project, dose response (AID 624133); format: functional
[22] = biological target: Photoreceptor-specific nuclear receptor (Homo sapiens, UniProt Q9Y5X4); format: functional, cell-based;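 further: CHO-S cells with Gal4-NCOR and VP16-NR2E3 two-hybrid luciferase reporter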
Sequence of Photoreceptor-specific nuclear receptor (Q9Y5X4 whole entry, the tested form may be a part): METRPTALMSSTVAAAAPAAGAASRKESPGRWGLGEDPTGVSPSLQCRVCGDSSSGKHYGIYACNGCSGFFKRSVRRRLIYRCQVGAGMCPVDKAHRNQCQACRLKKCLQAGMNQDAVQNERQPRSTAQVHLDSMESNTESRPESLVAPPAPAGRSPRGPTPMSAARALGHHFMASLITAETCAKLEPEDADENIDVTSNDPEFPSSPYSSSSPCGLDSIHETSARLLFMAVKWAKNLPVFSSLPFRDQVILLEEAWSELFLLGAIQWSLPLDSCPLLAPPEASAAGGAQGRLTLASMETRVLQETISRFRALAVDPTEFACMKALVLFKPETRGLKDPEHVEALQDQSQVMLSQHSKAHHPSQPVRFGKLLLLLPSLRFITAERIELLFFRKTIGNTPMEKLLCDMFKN

Sequence of Nonstructural protein 1 (Q194T2 whole entry): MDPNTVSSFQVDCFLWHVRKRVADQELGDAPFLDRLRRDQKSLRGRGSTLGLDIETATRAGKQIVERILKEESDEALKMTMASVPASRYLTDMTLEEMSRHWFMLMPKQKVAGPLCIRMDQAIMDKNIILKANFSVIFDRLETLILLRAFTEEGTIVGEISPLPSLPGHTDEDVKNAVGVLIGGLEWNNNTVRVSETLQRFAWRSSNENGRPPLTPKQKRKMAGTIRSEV
Sequence of ATP-dependent molecular chaperone HSP82 (C4YTQ8 whole entry): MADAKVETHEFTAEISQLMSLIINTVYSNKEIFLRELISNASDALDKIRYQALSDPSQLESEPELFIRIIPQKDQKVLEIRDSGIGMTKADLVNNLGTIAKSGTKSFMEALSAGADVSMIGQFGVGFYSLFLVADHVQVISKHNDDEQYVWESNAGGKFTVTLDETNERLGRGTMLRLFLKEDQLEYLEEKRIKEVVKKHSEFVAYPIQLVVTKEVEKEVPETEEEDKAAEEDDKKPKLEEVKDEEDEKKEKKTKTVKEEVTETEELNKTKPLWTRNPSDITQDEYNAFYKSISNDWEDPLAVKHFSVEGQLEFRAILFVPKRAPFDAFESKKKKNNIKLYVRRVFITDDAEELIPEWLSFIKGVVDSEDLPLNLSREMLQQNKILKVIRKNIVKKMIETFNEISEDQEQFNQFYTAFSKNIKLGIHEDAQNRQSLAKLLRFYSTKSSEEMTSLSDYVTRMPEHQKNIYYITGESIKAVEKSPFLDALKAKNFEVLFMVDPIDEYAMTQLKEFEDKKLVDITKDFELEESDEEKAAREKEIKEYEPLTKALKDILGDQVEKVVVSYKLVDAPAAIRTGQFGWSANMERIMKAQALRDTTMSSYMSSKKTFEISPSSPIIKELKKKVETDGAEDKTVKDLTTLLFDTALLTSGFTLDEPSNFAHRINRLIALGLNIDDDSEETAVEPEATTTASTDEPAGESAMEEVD

SMILES: O=c1cc(-c2cccs2)oc2ccc(Cl)cc12
- EC50 [1]: 3.83 µM (active)
- EC50 [2]: 5.5 µM (active)
- EC50 [3]: > 120 µM (not active)
- IC50 [4]: 18 µM (active)
- IC50 [5]: 7.72 µM (active)
- IC50 [6]: > 100 µM (inactive)
- IC50 [7]: > 100 µM (inactive)

SMILES: O=[N+]([O-])c1cc(CN2CCN(c3ccccc3)CC2)c(O)c2ncccc12
- EC50 [8]: 23 µM (inconclusive)
- EC50 [9]: > 195 µM (not active)
- EC50 [10]: 0.201 µM (active)
- EC50 [11]: 0.295 µM (active)
- EC50 [12]: > 180 µM (inactive)
- EC50 [13]: 0.809 µM (active)
- IC50 [14]: 3.42 µM (active)
- AC50 [15]: 8.3 µM (active)
- AC50 [16]: 49.4 µM (active)
- AC50 [17]: 1.17 µM (active)
- EC50 [18]: 18 µM (active)
- AC50 [19]: 1.99 µM (active)
- AC50 [20]: 3.74 µM (active)
- AC50 [21]: 2.28 µM (active)
- IC50 [22]: 13.9 µM (inactive)

SMILES: CSc1ncccc1C(=O)OCc1ccccc1
- IC50 [4]: 21.3 µM (active)
- IC50 [5]: 9.53 µM (active)
- IC50 [6]: 31.8 µM (active)
- IC50 [7]: 43.6 µM (active)
